The values below are quoted from earlier work in US7618664B2 (Cooperatieve Verkoop-en Productievereniging Van …, priority 2001, dated 2009).

For this data set the following is noted: human body.

calcium gluconate: the toxicity result is listed as “essentially not show any toxicity”.
